Laboratory results from patent publication US9873696B2, “Neprilysin inhibitors” (THERAVANCE BIOPHARMA R&D IP, LLC, priority 2010, dated 2018).

target: T1, human NEP (Homo sapiens, UniProt P08473); experiment: In vitro enzyme inhibition assay at human NEP (Assay 1); format: biochemical; conditions: recombinant enzyme, fluorogenic peptide substrate, 37° C.
T1 construct: purchased R&D Systems, Minneapolis, Minn; 1182-ZN
Outline: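 Recombinant enzyme preincubated with compound 30 min at 37 °C, then 10 μM Mca-D-Arg-Arg-Leu-Dap-(Dnp)-OH added in 50 mM HEPES pH 7.5, 100 mM NaCl, 0.01% Tween-20, 10 μM ZnSO4; stopped after 20 min with acetic acid. Fluorescence read at 320/405 nm; Ki from nonlinear fit of v=v0/[1+(I/K′)], reported as pKi.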

T1 sequence (P08473 whole entry): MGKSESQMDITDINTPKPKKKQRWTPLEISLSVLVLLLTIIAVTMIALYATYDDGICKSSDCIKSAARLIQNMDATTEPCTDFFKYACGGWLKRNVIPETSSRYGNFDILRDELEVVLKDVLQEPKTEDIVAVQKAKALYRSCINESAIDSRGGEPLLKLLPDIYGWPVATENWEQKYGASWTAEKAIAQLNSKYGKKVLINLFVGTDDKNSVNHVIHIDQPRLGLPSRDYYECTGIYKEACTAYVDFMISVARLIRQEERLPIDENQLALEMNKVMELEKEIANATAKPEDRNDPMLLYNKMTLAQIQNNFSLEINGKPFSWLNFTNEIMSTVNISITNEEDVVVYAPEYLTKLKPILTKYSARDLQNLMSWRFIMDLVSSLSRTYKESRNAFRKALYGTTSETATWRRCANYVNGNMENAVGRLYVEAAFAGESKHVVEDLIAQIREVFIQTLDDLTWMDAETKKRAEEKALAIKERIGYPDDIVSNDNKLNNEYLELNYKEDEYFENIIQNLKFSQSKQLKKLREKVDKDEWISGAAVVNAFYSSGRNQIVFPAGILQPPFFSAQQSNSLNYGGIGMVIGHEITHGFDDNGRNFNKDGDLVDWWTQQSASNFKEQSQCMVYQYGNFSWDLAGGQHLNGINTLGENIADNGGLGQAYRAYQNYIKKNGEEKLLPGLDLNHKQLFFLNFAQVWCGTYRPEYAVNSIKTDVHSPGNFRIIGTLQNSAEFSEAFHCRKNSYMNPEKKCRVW

Row | Ki | Structure (SMILES)
1 | ≤ 1 nM | CC(C)(O)c1cc(C(=O)NN(Cc2ccc(-c3cc(Cl)ccc3F)cc2)C[C@@H](O)C(=O)O)[nH]n1 [Example 8-40, (R)-3-{N-(5′-Chloro-2′-fluoro-biphenyl-4-ylmethyl)-N′-[5-(1-hydroxy-1-methyl-ethyl)-2H-pyrazole-3-carbonyl]-hydrazino}-2-hydroxy-propionic acid]
2 | ≤ 1 nM | O=C(NN(Cc1ccc(-c2cc(Cl)ccc2F)cc1)C[C@@H](O)C(=O)O)c1cc(-c2cc(Cl)ccc2Cl)n[nH]1 [Example 8-41, (R)-3-{N-(5′-Chloro-2′-fluoro-biphenyl-4-ylmethyl)-N′-[5-(2,5-dichloro-phenyl)-2H-pyrazole-3-carbonyl]-hydrazino}-2-hydroxy-propionic acid]
3 | ≤ 1 nM | CCCCc1cc(C(=O)NN(Cc2ccc(-c3cc(Cl)ccc3F)cc2)C[C@@H](O)C(=O)O)[nH]n1 [Example 8-42, (R)-3-[N′-(5-Butyl-2H-pyrazole-3-carbonyl)-N-(5′-chloro-2′-fluoro-biphenyl-4-ylmethyl)-hydrazino]-2-hydroxy-propionic acid]
4 | ≤ 1 nM | O=C(NN(Cc1ccc(-c2cc(Cl)ccc2F)cc1)C[C@@H](O)C(=O)O)c1cc(C2CC2)n[nH]1 [Example 8-43, (R)-3-[N-(5′-Chloro-2′-fluoro-biphenyl-4-ylmethyl)-N′-(5-cyclopropyl-2H-pyrazole-3-carbonyl)-hydrazino]-2-hydroxy-propionic acid]
5 | ≤ 1 nM | CC(C)c1cc(C(=O)NN(Cc2ccc(-c3cc(Cl)ccc3F)cc2)C[C@@H](O)C(=O)O)[nH]n1 [Example 8-44, (R)-3-[N-(5′-Chloro-2′-fluoro-biphenyl-4-ylmethyl)-N′-(5-isopropyl-2H-pyrazole-3-carbonyl)-hydrazino]-2-hydroxy-propionic acid]
6 | ≤ 1 nM | CC(=O)c1cc(C(=O)NN(Cc2ccc(-c3cc(Cl)ccc3F)cc2)C[C@H](O)C(=O)O)[nH]n1 [Example 8-45, (S)-3-[N′-(5-Acetyl-2H-pyrazole-3-carbonyl)-N-(5′-chloro-2′-fluoro-biphenyl-4-ylmethyl)-hydrazino]-2-hydroxy-propionic acid]
7 | 1.26 to 10 nM | CC(=O)c1cc(C(=O)NN(Cc2ccc(-c3cc(Cl)ccc3C)cc2)C[C@H](O)C(=O)O)[nH]n1 [Example 8-47, (S)-3-[N′-(5-Acetyl-2H-pyrazole-3-carbonyl)-N-(5′-chloro-2′-methyl-biphenyl-4-ylmethyl)-hydrazino]-2-hydroxy-propionic acid]
8 | 1.26 to 10 nM | CC(=O)c1cc(C(=O)NN(Cc2ccc(-c3cc(Cl)ccc3Cl)cc2)C[C@H](O)C(=O)O)[nH]n1 [Example 8-48, (S)-3-[N′-(5-Acetyl-2H-pyrazole-3-carbonyl)-N-(2′,5′-dichloro-biphenyl-4-ylmethyl)-hydrazino]-2-hydroxy-propionic acid]
9 | ≤ 1 nM | COc1ccccc1C(=O)Nc1cc(C(=O)NN(Cc2ccc(-c3cc(Cl)ccc3F)cc2)C[C@@H](O)C(=O)O)[nH]n1 [Example 8-49, (R)-3-{N-(5′-Chloro-2′-fluoro-biphenyl-4-ylmethyl)-N′-[5-(2-methoxy-benzoylamino)-2H-pyrazole-3-carbonyl]-hydrazino}-2-hydroxy-propionic acid]
10 | ≤ 1 nM | O=C(NN(Cc1ccc(-c2cc(Cl)ccc2F)cc1)C[C@@H](O)C(=O)O)c1cc(-c2cnccn2)[nH]n1 [Example 8-50, (R)-3-[N-(5′-Chloro-2′-fluoro-biphenyl-4-ylmethyl)-N′-(5-pyrazin-2-yl-1H-pyrazole-3-carbonyl)-hydrazino]-2-hydroxy-propionic acid]
11 | 1.26 to 10 nM | O=C(NN(Cc1ccc(-c2cc(Cl)ccc2F)cc1)C[C@@H](O)C(=O)O)c1cc(O)n(-c2ccccn2)n1 [Example 8-51, (R)-3-[N-(5′-Chloro-2′-fluoro-biphenyl-4-ylmethyl)-N′-(5-hydroxy-1-pyridin-2-yl-1H-pyrazole-3-carbonyl)-hydrazino]-2-hydroxy-propionic acid]
12 | 1.26 to 10 nM | O=C(NN(Cc1ccc(-c2cc(Cl)ccc2F)cc1)C[C@@H](O)C(=O)O)c1cc(O)n(-c2ccccc2F)n1 [Example 8-52, (R)-3-{N-(5′-Chloro-2′-fluoro-biphenyl-4-ylmethyl)-N′-[1-(2-fluoro-phenyl)-5-hydroxy-1H-pyrazole-3-carbonyl]-hydrazino}-2-hydroxy-propionic acid]
13 | 1.26 to 10 nM | O=C(O)Cn1nc(C(=O)NN(Cc2ccc(-c3cc(Cl)ccc3F)cc2)C[C@@H](O)C(=O)O)cc1C1CC1 [Example 8-53, (R)-3-[N′-(1-Carboxymethyl-5-cyclopropyl-1H-pyrazole-3-carbonyl)-N-(5′-chloro-2′-fluoro-biphenyl-4-ylmethyl)-hydrazino]-2-hydroxy-propionic acid]
14 | 1.26 to 10 nM | CC(C)c1cc(C(=O)NN(Cc2ccc(-c3cc(Cl)ccc3F)cc2)C[C@@H](O)C(=O)O)nn1CC(=O)O [Example 8-54, (R)-3-[N′-(1-Carboxymethyl-5-isopropyl-1H-pyrazole-3-carbonyl)-N-(5′-chloro-2′-fluoro-biphenyl-4-ylmethyl)-hydrazino]-2-hydroxy-propionic acid]
15 | 1.26 to 10 nM | CCCCc1cc(C(=O)NN(Cc2ccc(-c3cc(Cl)ccc3F)cc2)C[C@@H](O)C(=O)O)nn1CC(=O)O [Example 8-55, (R)-3-[N′-(5-Butyl-1-carboxymethyl-1H-pyrazole-3-carbonyl)-N-(5′-chloro-2′-fluoro-biphenyl-4-ylmethyl)-hydrazino]-2-hydroxy-propionic acid]
16 | 1.26 to 10 nM | CC(C)(O)c1cc(C(=O)NN(Cc2ccc(-c3cc(Cl)ccc3F)cc2)C[C@@H](O)C(=O)O)nn1CC(=O)O [Example 8-56, (R)-3-[N′-[1-Carboxymethyl-5-(1-hydroxy-1-methyl-ethyl)-1H-pyrazole-3-carbonyl]-N-(5′-chloro-2′-fluoro-biphenyl-4-ylmethyl)-hydrazino]-2-hydroxy-propionic acid]
17 | 1.26 to 10 nM | CCOc1cc(C(=O)NN(Cc2ccc(-c3cc(Cl)ccc3F)cc2)C[C@@H](O)C(=O)O)n[nH]1 [Example 8-57, (R)-3-[N-(5′-Chloro-2′-fluoro-biphenyl-4-ylmethyl)-N′-(5-ethoxy-1H-pyrazole-3-carbonyl)-hydrazino]-2-hydroxy-propionic acid]
18 | ≤ 1 nM | O=C(NN(Cc1ccc(-c2cc(Cl)ccc2F)cc1)C[C@@H](O)C(=O)O)c1ccc(=O)[nH]n1 [Example 8-58, (R)-3-[N-(5′-Chloro-2′-fluoro-biphenyl-4-ylmethyl)-N′-(6-oxo-1,6-dihydro-pyridazine-3-carbonyl)-hydrazino]-2-hydroxy-propionic acid]
19 | ≤ 1 nM | Cc1ccc(Cl)cc1-c1ccc(CN(C[C@@H](O)C(=O)O)NC(=O)c2nnn[nH]2)cc1 [Example 8-59, (R)-3-[N-(5′-Chloro-2′-methyl-biphenyl-4-ylmethyl)-N′-(1H-tetrazole-5-carbonyl)-hydrazino]-2-hydroxy-propionic acid]
20 | ≤ 1 nM | O=C(NN(Cc1ccc(-c2cc(Cl)ccc2Cl)cc1)C[C@@H](O)C(=O)O)c1nnn[nH]1 [Example 8-60, (R)-3-[N-(2′,5′-Dichloro-biphenyl-4-ylmethyl)-N′-(1H-tetrazole-5-carbonyl)-hydrazino]-2-hydroxy-propionic acid]
21 | ≤ 1 nM | O=C(NN(Cc1ccc(-c2cc(Cl)ccc2F)cc1)C[C@@H](O)C(=O)O)c1nn(-c2ccccc2)c(=O)[nH]1 [Example 8-64, (R)-3-[N-(5′-Chloro-2′-fluoro-biphenyl-4-ylmethyl)-N′-(5-oxo-1-phenyl-4,5-dihydro-1H-[1,2,4]triazole-3-carbonyl)-hydrazino]-2-hydroxy-propionic acid]
22 | 1.26 to 10 nM | O=C(NN(Cc1ccc(-c2cc(Cl)ccc2F)cc1)C[C@@H](O)C(=O)O)c1nn(-c2ccc(F)cc2)c(=O)[nH]1 [Example 8-65, (R)-3-{N-(5′-Chloro-2′-fluoro-biphenyl-4-ylmethyl)-N′-[1-(4-fluoro-phenyl)-5-oxo-4,5-dihydro-1H-[1,2,4]triazole-3-carbonyl]-hydrazino}-2-hydroxy-propionic acid]
23 | 1.26 to 10 nM | O=C(NN(Cc1ccc(-c2cc(Cl)ccc2F)cc1)C[C@@H](O)C(=O)O)c1nn(-c2ccccc2Cl)c(=O)[nH]1 [Example 8-66, (R)-3-{N-(5′-Chloro-2′-fluoro-biphenyl-4-ylmethyl)-N′-[1-(2-chloro-phenyl)-5-oxo-4,5-dihydro-1H-[1,2,4]triazole-3-carbonyl]-hydrazino}-2-hydroxy-propionic acid]
24 | ≤ 1 nM | O=C(NN(Cc1ccc(-c2cc(Cl)ccc2F)cc1)C[C@@H](O)C(=O)O)c1nn(-c2cccc(Cl)c2)c(=O)[nH]1 [Example 8-67, (R)-3-{N-(5′-Chloro-2′-fluoro-biphenyl-4-ylmethyl)-N′-[1-(3-chloro-phenyl)-5-oxo-4,5-dihydro-1H-[1,2,4]triazole-3-carbonyl]-hydrazino}-2-hydroxy-propionic acid]
25 | 1.26 to 10 nM | Cc1cc(C(=O)NN(Cc2ccc(-c3cc(Cl)ccc3F)cc2)C[C@@H](O)C(=O)O)cc2[nH]nnc12 [Example 8-68, (R)-3-[N-(5′-Chloro-2′-fluoro-biphenyl-4-ylmethyl)-N′-(7-methyl-3H-benzotriazole-5-carbonyl)-hydrazino]-2-hydroxy-propionic acid]
26 | ≤ 1 nM | O=C(NN(Cc1ccc(-c2cc(Cl)ccc2F)cc1)C[C@@H](O)C(=O)O)c1cc(Cl)c2nn[nH]c2c1 [Example 8-69, (R)-3-[N′-(7-Chloro-3H-benzotriazole-5-carbonyl)-N-(5′-chloro-2′-fluoro-biphenyl-4-ylmethyl)-hydrazino]-2-hydroxy-propionic acid]
27 | ≤ 1 nM | O=C(NN(Cc1ccc(-c2cc(Cl)ccc2F)cc1)C[C@@H](O)C(=O)O)c1cc(F)c2nn[nH]c2c1 [Example 8-73, (R)-3-[N-(5′-Chloro-2′-fluoro-biphenyl-4-ylmethyl)-N′-(7-fluoro-3H-benzotriazole-5-carbonyl)-hydrazino]-2-hydroxy-propionic acid]
